Experimental data: patent US11123398B2, “Chemotherapeutic combinations of cationic antimicrobial peptides and chemotherapeutics” (LYTIX BIOPHARMA AS, priority 2014, dated 2021)
Non-standard residues stand in square brackets, D forms with d. Residues, ends and D or L forms follow the SMILES beside them. No end group written: not given here. Bip = N[C@@H](Cc1ccc(-c2ccccc2)cc1)C(=O)O; dBip = N[C@H](Cc1ccc(-c2ccccc2)cc1)C(=O)O; Dip = N[C@H](C(=O)O)C(c1ccccc1)c1ccccc1

Experiments:
A20 lymphoma = assay: LTX-315 with metronomic CY in A20 lymphoma model; assay type: in vivo, Balb/c mice; settings: metronomic CY, single i.p. 2 mg on day 4
Method: Tumor cells were harvested, washed in RPMI-1640 and injected intradermally (i.d.) into the right side of the abdomen in Balb/c mice (5×10^6 A20 cells per mouse/50 μl RPMI-1640). When animals obtained palpable tumors (20-30 mm^2) animals were injected i.p. with a single dose of CY (day 4) dissolved in saline (2.0 mg CY/500 μl saline). […] Tumor size was measured using an electronic caliper and expressed as the area of an ellipse [(maximum dimension/2)×(minimum dimension/2)×π]. Animals were then euthanized when the product of the perpendicular tumor dimensions reached 130 mm^2 or when tumor ulceration developed.

spleen cells = settings: cited from earlier work
Hep G2 cell line = assay type: cell-based, human; settings: 4 h
Method: (§1) Tumor cells were plated in 96-well flat-bottom microtitration plates (Nunc, Dutscher, Brumath, France) and incubated at 37° C. for 24 hours before treatment in 190 μl of drug-free culture medium supplemented or not with 10% FBS for adherent or suspension growing cell lines, respectively.
(§2) The adherent cell lines were washed once with 200 μl FBS-free culture medium before treatment. Tumor cells were incubated for 4 hours with 10 concentrations of compounds in ¼ dilution step with a top dose of 400 μM (range 4×10^−4 to 4×10^−10 M), with 1% (final concentration) Triton X-100 as positive control and FBS-free culture medium as negative control. The cells (190 μl) were incubated in a 200 μl final volume of FBS-free culture medium containing test substances at 37° C. under 5% CO2.
(§3) Three independent experiments were performed, each concentration being tested in quadruplicate. Control cells were treated with vehicle alone. At the end of treatments, the cytotoxic activity was evaluated by a MTS assay (see § 3.3.).
(§4) Like MTT, MTS is bioreduced by cells into a formazan product that is directly soluble in culture medium without processing, unlike MTT.
(§5) At the end of the cells treatment, 40 μl of a 0.22 μm filtered freshly combined solution of MTS (20 ml at 2 mg/ml, Ref G1111, Batch 235897, Exp March 2009, Promega, Charbonnières, France) and PMS (1 ml at 0.92 mg/ml, Ref P9625, Batch 065K0961, Sigma) in Dulbecco's Phosphate Buffered Saline (DPBS, Ref 17-513Q, Batch 6MB0152, Cambrex), were added in each well. Culture plates were incubated for 2 h at 37° C. Absorbency (OD) were measured at 490 nm in each well using VICTOR^3™ 1420 multilabeled counter (Wallac, PerkinElmer, Courtaboeuf, France).
(§6) IC50: drug concentration to obtain a 50% inhibition of cell proliferation.
(§7) The dose-response curves were plotted using XLFit 3 (IDBS, United Kingdom). The IC50 determination values were calculated using the XLFit 3 software from semi-log curves. Individual IC50 determination values as well as mean and SD values were generated.

T-47D cell line = assay type: cell-based, human; settings: 4 h
Method: as §1, §2, §3, §4, §5, §6, §7

[1] = tested on: panel of 37 human cancer cell lines; assay type: cell-based; settings: for IC50: 4 h; for IC50 range against 37 human cancer cell lines: conclusion
Method: as §2, with “Tumor cells were incubated for 4 hours with 10 concentrations of” left out
as §3, §4, §5, §6, §7

HL-60/ADR = assay: MTS cytotoxicity assay, HL-60/ADR; assay type: cell-based, human; settings: IC50 resistant / IC50 sensitive line; doxorubicin resistance
Method: as §1, §2, §3, §4, §5, §6, §7
(§8) Resistance index was calculated using the following formula: […]
(§9) Resistance index was calculated for each compound for each couple of sensitive and resistant cell lines. Individual resistance index was calculated when IC50 values of both sensitive and corresponding resistant cell lines were determined within same experiment. In addition, resistance index was also calculated ratio of mean IC50 values obtained during three independent experiments.

MCF-7/mdr = assay: MTS cytotoxicity assay, MCF-7/mdr; assay type: cell-based, human; settings: IC50 resistant / IC50 sensitive line; doxorubicin resistance
Method: as §1, §2, §3, §4, §5, §6, §7, §8, §9

IGROV-1/CDDP = assay: MTS cytotoxicity assay, IGROV-1/CDDP; assay type: cell-based, human; settings: IC50 resistant / IC50 sensitive line; cisplatin resistance
Method: as §1, §2, §3, §4, §5, §6, §7, §8, §9

Raji cell line = assay type: cell-based, human; settings: 4 h
Method: (§10) Tumor cells were plated in 96-well flat-bottom microtitration plates (Nunc, Dutscher, Brumath, France) and incubated at 37° C. for 24 hours before treatment in 190 μl of drug-free and FBS-free culture medium.
as §2, with “Tumor” for “The adherent cell lines were washed once with 200 μl FBS-free culture medium before treatment. Tumor”, “[…]” for “4×10^−10”
(§11) Three independent experiments were performed, each concentration being issued from quadruplicate. Control cells were treated with vehicle alone. At the end of treatments, the cytotoxic activity was evaluated by a MTS assay (see § 3.3 below).
as §4, §5
(§12) 4.1. IC50 Data was Determined as in Example 1

U-937 cell line = assay type: cell-based, human; settings: 4 h
Method: as §10
as §2, with “Tumor” for “The adherent cell lines were washed once with 200 μl FBS-free culture medium before treatment. Tumor”, “[…]” for “4×10^−10”
as §11, §4, §5, §12

[2] = tested on: panel of 10 lymphoma cell lines; assay type: cell-based, human; settings: conclusion
Method: as §10
[…] compounds in ¼ dilution step with a top dose of 400 μM (range 4×10^−4 to […]), with 1% (final concentration) Triton X-100 as positive control and FBS-free culture medium as negative control. The cells (190 μl) were incubated in a 200 μl final volume of FBS-free culture medium containing test substances at 37° C. under 5% CO2.
as §11, §4, §5, §12

RPMI 8226 cell line = assay type: cell-based, human; settings: 4 h
Method: as §1, §2, §3, §4, §5, §6, §7

U-87 MG cell line = assay type: cell-based, human; settings: 4 h
Method: as §1, §2, §3, §4, §5, §6, §7

CCRF-CEM/VLB = assay: MTS cytotoxicity assay, CCRF-CEM/VLB; assay type: cell-based, human; settings: IC50 resistant / IC50 sensitive line
Method: as §1
as §2, with “The cells (190 μl) were incubated in a 200 μl final volume of FBS-free culture medium containing test substances at 37° C. under 5% CO2.” left out
Three independent experiments were performed, each concentration being tested in quadruplicate. […] At the end of treatments, the cytotoxic activity was evaluated by a MTS assay (see § 3.3.). […]
as §5, with “Culture plates were incubated for 2 h at 37° C.” left out, “France). […]” for “France).”
as §8

Ramos cell line = assay type: cell-based, human; settings: 4 h
Method: as §10
(§13) Tumor cells were incubated for 4 hours with 10 concentrations of compounds in ¼ dilution step with a top dose of 400 μM (range 4×10^−4 to […]), with 1% (final concentration) Triton X-100 as positive control and FBS-free culture medium as negative control. The cells (190 μl) were incubated in a 200 μl final volume of FBS-free culture medium containing test substances at 37° C. under 5% CO2.
as §11, §4, §5, §12

Hs 445 cell line = assay type: cell-based, human; settings: 4 h
Method: as §10, §13, §11, §4, §5, §12

A375 cells = assay: Confocal microscopy with fluorescence-labeled peptide (internalization); assay type: cell-based, human; settings: 3 μM and 1.5 μM, 30-60 min
Method: Subconfluential A375 cells were seeded at 8,000 cells/well as above, and transfected on the second day using the Lipofectamine LTX with Plus transfection reagents (Invitrogen) following the manufacturer's protocol. The mitochondria were labeled using the pDsRed2-Mito, and the nucleus was labeled using the GFP-Histon2B plasmid (Imaging Platform, University of Tromsø). A day after transfection, cells were washed twice with serum-free RPMI, and treated at different concentration and incubation periods with LTX-315 Pacific Blue or LTX-328 Pacific Blue. […] Control cells were treated with unlabeled LTX-315 and also with serum-free RPMI only. After incubation, cells were fixed with 4% paraformaldehyde in PBS, and the wells were covered with Prolong Gold antifade (Invitrogen). Cells were further analyzed by use of a Leica TCS SP5 confocal microscope, with a […] objective. Pacific Blue, GFP and Ds Red were excited using UV, with 488 and 561 lasers, and fluorescence channels were sequentially detected using the following band passes: UV: 420-480 nm (with attenuation), 488: 501-550 nm and 561: 576-676 nm.

Row | Compound | Duration of tumor growth inhibition (A20 lymphoma) [days] | Relative number of CD19+ and Tregs (spleen cells; after CY administration) | Relative numbers of CD4+ and CD8+ T cells in spleens and LNs (spleen cells; after CY administration) | Drop in spleen cells at low-point (spleen cells; single i.p. injection of 2 mg CY, fourth day after administration) [%] | IC50 (Hep G2 cell line) [µM] | IC50 (T-47D cell line) [µM] | IC50 [1] [µM] | IC50 range against 37 human cancer cell lines [1] | Resistance index (RI), HL-60/ADR (HL-60/ADR) | Resistance index (RI), MCF-7/mdr (MCF-7/mdr) | Resistance index (RI), IGROV-1/CDDP (IGROV-1/CDDP) | IC50 (Raji cell line) [µM] | IC50 (U-937 cell line) [µM] | IC50 range against 10 human lymphoma cell lines [2] | IC50 (RPMI 8226 cell line) [µM] | IC50 (U-87 MG cell line) [µM] | Resistance index (RI), CCRF-CEM/VLB (CCRF-CEM/VLB) | IC50 (Ramos cell line) [µM] | IC50 (Hs 445 cell line) [µM] | Internalization of Pacific Blue-labeled peptide (A375 cells)
1 | O=P1(N(CCCl)CCCl)NCCCO1 (centres unmarked) [CY, cyclophosphamide] | 7 to 10 | decreased sharply | increased | 50 | – | – | – | – | – | – | – | – | – | – | – | – | – | – | – | –
2 | NCCCC[C@H](NC(=O)[C@H](Cc1c[nH]c2ccccc12)NC(=O)[C@H](CCCCN)NC(=O)[C@H](CCCCN)NC(=O)[C@@H](NC(=O)[C@H](Cc1c[nH]c2ccccc12)NC(=O)[C@H](CCCCN)NC(=O)[C@H](CCCCN)NC(=O)[C@@H](N)Cc1c[nH]c2ccccc12)C(c1ccccc1)c1ccccc1)C(N)=O [LTX-302, W-K-K-W-Dip-K-K-W-K-NH2] (H-WKKW[Dip]KKWK-NH2; N-terminus assumed) | – | – | – | – | 20.1 ± 4.07 | 4.83 ± 0.96 | 12.1 ± 4.27 | micromolar to ten micromolar range | 1.31 | 1.23 | 0.33 | 12.5 ± 3.52 | 5.3 ± 2.02 | micromolar range | – | – | – | – | – | –
3 | NCCCC[C@H](NC(=O)[C@H](Cc1c[nH]c2ccccc12)NC(=O)[C@H](Cc1c[nH]c2ccccc12)NC(=O)[C@H](CCCCN)NC(=O)[C@H](CCCCN)NC(=O)[C@H](Cc1c[nH]c2ccccc12)NC(=O)[C@H](Cc1ccc(-c2ccccc2)cc1)NC(=O)[C@H](CCCCN)NC(=O)[C@@H](N)CCCCN)C(N)=O [LTX-313, K-K-Bip-W-K-K-W-W-K-NH2] (H-KK[Bip]WKKWWK-NH2; N-terminus assumed) | – | – | – | – | – | – | 9.6 ± 3.73 | micromolar to ten micromolar range | 1.16 | 1.24 | 0.49 | 16.1 ± 4.86 | – | micromolar range | 4.01 ± 0.39 | 18.5 ± 4.86 | 0.76 | 3.21 ± 2.81 | – | –
4 | N=C(N)NCCC[C@H](NC(=O)[C@H](Cc1c[nH]c2ccccc12)NC(=O)[C@H](Cc1c[nH]c2ccccc12)NC(=O)[C@H](CCCNC(=N)N)NC(=O)[C@H](CCCNC(=N)N)NC(=O)[C@@H](NC(=O)[C@H](Cc1c[nH]c2ccccc12)NC(=O)[C@H](CCCNC(=N)N)NC(=O)[C@@H](N)CCCNC(=N)N)C(c1ccccc1)c1ccccc1)C(N)=O [LTX-320, R-R-W-Dip-R-R-W-W-R-NH2] (H-RRW[Dip]RRWWR-NH2; N-terminus assumed) | – | – | – | – | 16.6 ± 3.15 | 3.46 ± 0.22 | 7.58 ± 2.79 | micromolar to ten micromolar range | 0.90 | 1.19 | 0.49 | 11.3 ± 3.42 | – | micromolar range | – | – | – | – | 2.22 | –
5 | NCCCC[C@@H](N)C(=O)N[C@H](CCCCN)C(=O)N[C@H](Cc1ccc(-c2ccccc2)cc1)C(=O)N[C@H](Cc1c[nH]c2ccccc12)C(=O)N[C@H](CCCCN)C(=O)N[C@H](CCCCN)C(=O)N[C@H](Cc1c[nH]c2ccccc12)C(=O)N[C@H](Cc1c[nH]c2ccccc12)C(=O)N[C@H](CCCCN)C(N)=O [LTX-329, k-k-bip-w-k-k-w-w-k-NH2] (H-[dK][dK][dBip][dW][dK][dK][dW][dW][dK]-NH2; N-terminus assumed) | – | – | – | – | – | 2.43 ± 0.34 | 8.17 ± 3.2 | micromolar to ten micromolar range | 0.80 | 1.07 | 0.46 | 8.7 ± 1.7 | – | micromolar range | – | 16.9 ± 1.18 | 0.76 | – | 2.46 | –
6 | K-A-Q-Dip-Q-K-Q-A-W-NH2 (KAQ[Dip]QKQAW-NH2; N-terminus assumed; SMILES C[C@H](NC(=O)[C@H](CCC(N)=O)NC(=O)[C@H](CCCCN)NC(=O)[C@H](CCC(N)=O)NC(=O)[C@@H](NC(=O)[C@H](CCC(N)=O)NC(=O)[C@H](C)NC(=O)[C@@H](N)CCCCN)C(c1ccccc1)c1ccccc1)C(=O)N[C@@H](Cc1c[nH]c2ccccc12)C(N)=O) [LTX-328, reference compound] | – | – | – | – | – | – | – | – | – | – | – | – | – | – | – | – | – | – | – | did not demonstrate any internalization at any concentration or incubation time tested
